Measured values published in ChEMBL document CHEMBL1201862, “PubChem BioAssay data set” (2004).
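Growth conditions: 96-well plates. Treatment: test compound, 48 hours, 5 concentrations. Analysis: linear interpolation between bracketing concentrations; unreached endpoints set to highest concentration. GI50 is the concentration that inhibits growth by half.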 The source made the active and inactive calls. Rule as the data show it: active = GI50 up to about 1.1 µM and inactive = higher.

Columns and labels:
Experiment in all cases: NCI anticancer screen, dose series, 48 h
786-0 = system: 786-0
A498 = system: A498
A549 = system: A549
ACHN = system: ACHN
BT-549 = system: BT-549
CAKI-1 = system: CAKI-1
CCRF-CEM = system: CCRF-CEM
COLO 205 = system: COLO 205
DU-145 = system: DU-145
EKVX = system: EKVX
HCC 2998 = system: HCC 2998
HCT-116 = system: HCT-116
HCT-15 = system: HCT-15
HL-60 = system: HL-60
HOP-62 = system: HOP-62
HOP-92 = system: HOP-92
HT-29 = system: HT-29
Hs-578T = system: Hs-578T
IGROV-1 = system: IGROV-1
K562 = system: K562
KM12 = system: KM12
LOX IMVI = system: LOX IMVI
M14 = system: M14
MCF7 = system: MCF7
MDA-MB-231 = system: MDA-MB-231
MDA-MB-435 = system: MDA-MB-435
MDA-N = system: MDA-N
MOLT-4 = system: MOLT-4
Malme-3M = system: Malme-3M
NCI-H226 = system: NCI-H226
NCI-H23 = system: NCI-H23
NCI-H460 = system: NCI-H460
NCI-H522 = system: NCI-H522
NCI/ADR-RES = system: NCI/ADR-RES
OVCAR-3 = system: OVCAR-3
OVCAR-4 = system: OVCAR-4
OVCAR-5 = system: OVCAR-5
OVCAR-8 = system: OVCAR-8
PC-3 = system: PC-3
RXF 393 = system: RXF 393
SF-268 = system: SF-268
SF-295 = system: SF-295
SF-539 = system: SF-539
SK-MEL-28 = system: SK-MEL-28
SK-MEL-2 = system: SK-MEL-2
SK-MEL-5 = system: SK-MEL-5
SK-OV-3 = system: SK-OV-3
SN12C = system: SN12C
SNB-19 = system: SNB-19
SNB-75 = system: SNB-75
SR = system: SR
SW-620 = system: SW-620
T47D = system: T47D
U-251 = system: U-251
UACC-257 = system: UACC-257
UACC-62 = system: UACC-62
UO-31 = system: UO-31
RPMI-8226 = system: RPMI-8226
TK-10 = system: TK-10

Measured: GI50

CC(C)Oc1cccc(N2C(Nc3ccccc3)=Nc3ccncc3S2(=O)=O)c1
inactive: 786-0 17700 nM | A498 25700 nM | A549 20400 nM | ACHN 26500 nM | BT-549 22400 nM | CAKI-1 26000 nM | CCRF-CEM 7550 nM | COLO 205 13100 nM | DU-145 42400 nM | EKVX 40500 nM | HCC 2998 1690 nM | HCT-116 20400 nM | HOP-62 32700 nM | HOP-92 16200 nM | HT-29 12200 nM | Hs-578T 39700 nM | IGROV-1 25400 nM | K562 76000 nM | KM12 20700 nM | LOX IMVI 17700 nM | M14 25300 nM | MCF7 17600 nM | MDA-MB-231 15200 nM | MDA-MB-435 11800 nM | MDA-N 23100 nM | MOLT-4 > 100000 nM | Malme-3M 23200 nM | NCI-H226 24100 nM | NCI-H23 32900 nM | NCI-H460 13300 nM | NCI-H522 30600 nM | NCI/ADR-RES 19300 nM | OVCAR-3 18400 nM | OVCAR-4 15600 nM | OVCAR-5 48100 nM | OVCAR-8 18200 nM | PC-3 6120 nM | RXF 393 21900 nM | SF-268 38900 nM | SF-295 23100 nM | SF-539 23800 nM | SK-MEL-2 7010 nM | SK-MEL-5 4120 nM | SK-OV-3 44000 nM | SN12C 30800 nM | SNB-19 34800 nM | SNB-75 > 100000 nM | SR 10900 nM | SW-620 17300 nM | T47D 13800 nM | U-251 7670 nM | UACC-257 17400 nM | UACC-62 19900 nM | UO-31 19100 nM
active: HL-60 410 nM | SK-MEL-28 320 nM
20200 nM: HCT-15

CC1=CC(=O)[C@@H](O)[C@]2(C)[C@H]3[C@@]4(O)OC[C@]35[C@H]([C@@H](C)[C@H]4O)[C@@H](O)C(=O)O[C@@H]5C[C@@H]12
active: 786-0 349 nM | A498 448 nM | A549 789 nM | ACHN 348 nM | BT-549 318 nM | CAKI-1 811 nM | CCRF-CEM 261 nM | COLO 205 543 nM | DU-145 330 nM | EKVX 771 nM | HCC 2998 227 nM | HCT-116 42.8 nM | HOP-62 210 nM | HOP-92 327 nM | HT-29 387 nM | Hs-578T 195 nM | IGROV-1 106 nM | K562 475 nM | KM12 202 nM | LOX IMVI 89.5 nM | M14 250 nM | MCF7 38.2 nM | MDA-MB-231 252 nM | MDA-MB-435 232 nM | MDA-N 213 nM | Malme-3M 43.8 nM | NCI-H226 194 nM | NCI-H23 192 nM | NCI-H460 214 nM | NCI-H522 181 nM | OVCAR-3 247 nM | OVCAR-4 597 nM | OVCAR-5 706 nM | OVCAR-8 279 nM | PC-3 293 nM | RPMI-8226 445 nM | RXF 393 391 nM | SF-268 231 nM | SF-295 339 nM | SF-539 74.3 nM | SK-MEL-28 156 nM | SK-MEL-2 219 nM | SK-MEL-5 118 nM | SK-OV-3 607 nM | SNB-19 115 nM | SNB-75 70.6 nM | SW-620 428 nM | T47D 225 nM | TK-10 338 nM | U-251 50.9 nM | UACC-257 276 nM | UACC-62 312 nM | UO-31 416 nM
inactive: MOLT-4 1550 nM | NCI/ADR-RES 2290 nM | SR 77600 nM
175 nM: HCT-15
